Experimental data: patent publication US20190282616A1, “MACROPHAGES REDIRECT PHAGOCYTOSIS BY NON-PROFESSIONAL PHAGOCYTES AND INFLUENCE INFLAMMATION” (University of Virginia Patent Foundation, priority 2016, published 2019)

Assays:
[1] = system: BEAS-2B cells; experiment: In vitro engulfment assay: apoptotic cell uptake by BEAS-2B cells; assay type: cell-based; settings: human IGF-I
Experimental: LR73, SVEC-40, BEAS-2B, and 16HBE14o-cells were seeded in a 24 well plate. Thymocytes were isolated from 4-6 week old mice and induced to undergo apoptosis with dexamethasone. Thymocytes or prepared microvesicles were then stained with either CypHer5E (GE Healthcare, PA15401) or TAMRA (Invitrogen, C-1171). LR73 and SVEC-40 cells were incubated with apoptotic thymocytes at a 1:10 phagocyte to target ratio, BEAS-2B at a 1:5 phagocyte to target ratio, and 16HBE14o—at a 1:20 phagocyte to target ratio for 2 hours. Mouse IGF-I (Sigma-Aldrich), human IGF-I (Sigma-Aldrich), human IGF-II (Sigma-Aldrich) were added to the phagocytes at the same time as addition of apoptotic targets. For IGFBP3 studies, IGFBP3 (Sigma-Aldrich) was added to media or supernatant from J774 cells for one hour to allow IGFBP3 to bind to any available IGF-I, then the mix is added to phagocytes along with apoptotic targets. […] Targets were then washed off three times with PBS, and the cells were dissociated from the plate with trypsin and the engulfment assessed by flow cytometry.

[2] = system: LR73 cells; settings: liposomes of 150-200 nm; IGF-1 50 ng/mL, EGF or VEGF 100 ng/mL each
Experimental: LR73, SVEC-40, BEAS-2B, and 16HBE14o-cells were seeded in a 24 well plate. Thymocytes were isolated from 4-6 week old mice and induced to undergo apoptosis with dexamethasone. Thymocytes or prepared microvesicles were then stained with either CypHer5E (GE Healthcare, PA15401) or TAMRA (Invitrogen, C-1171). LR73 and SVEC-40 cells were incubated with apoptotic thymocytes at a 1:10 phagocyte to target ratio, BEAS-2B at a 1:5 phagocyte to target ratio, and 16HBE14o—at a 1:20 phagocyte to target ratio for 2 hours. Mouse IGF-I (Sigma-Aldrich), human IGF-I (Sigma-Aldrich), human IGF-II (Sigma-Aldrich) were added to the phagocytes at the same time as addition of apoptotic targets. For IGFBP3 studies, IGFBP3 (Sigma-Aldrich) was added to media or supernatant from J774 cells for one hour to allow IGFBP3 to bind to any available IGF-I, then the mix is added to phagocytes along with apoptotic targets. For all pharmacological studies, phagocytes were pre-incubated with the compounds listed below for one hour prior to addition of apoptotic targets: cytochalasin D (Sigma-Aldrich, C8273, 1 μM), Latrunculin A (Tocris, 3973, 150 nM), CK-666 (Tocris, 3950, 25 μM-100 μM), OSI-906 (Selleckchem, S1091, 5 nM-40 nM), NVP-AEW541 (Selleckchem, S1034, 25 nM-100 nM), Rapamycin (Sigma-Aldrich, R0395, […]), MK-2206 2HCl (Selleckchem, S1078, 10 nM-1 U0126-EtOH (Selleckchem, S1102, […]), Wortmannin (Sigma-Aldrich, W1628, 50 nM-200 nM), Y27632 (Calbiochem, 688000, 3.75 μM-15 μM), or GSK269962 (Tocris, 4009, 80 nM-2 μM). […] Targets were then washed off three times with PBS, and the cells were dissociated from the plate with trypsin and the engulfment assessed by flow cytometry.
Liposomes were prepared by dissolving the lipids (phosphatidylserine, dioleoyl phosphatidylcholine, cholesterol and the lipid DiD dye) in chloroform, evaporating chloroform under flow of argon gas in a glass vial, then subjecting the lipid layer to overnight lyophilization to remove traces of organic solvent. Then normal saline was added for hydration, and intense vortexing was preformed to prepare multilamellar vesicles (MIN). Liposomes were repeatedly filtered through a 0.2 um Nuclepore polycarbonate filter to prepare smaller particles. Particle size was verified by dynamic light scattering using Nicomp 370.

[3] = system: J774 macrophage cells; experiment: Apoptotic thymocyte phagocytosis by J774 macrophage cells; assay type: cell-based; settings: even with supra-physiological concentrations of IGF-1, every time point
[4] = system: resident peritoneal macrophages; experiment: Liposome uptake by resident peritoneal macrophages; assay type: cell-based, mouse; settings: exposed to IGF-1 vs control
Experimental: To obtain bone-marrow derived macrophages, femurs were removed from 8 week old mice and flushed with 5 mL of sterile PBS containing 5% FBS. The cell suspension was centrifuged, treated with red blood cell lysis buffer, washed, and then plated onto sterile petri dishes in DMEM containing 10% L929 media, 10% FBS and 1% penicillin/streptomycin/glutamine (PSQ). Media was replenished every 2 to 3 days and differentiated cells were used at day 6 post-harvest. Resident peritoneal macrophages were obtained by flushing the peritoneal cavity of mice with 10 mL of cold PBS containing 5% FBS. Collected cells were spun down, resuspended in X-VIVO 10 (Lonza) and plated at a concentration of 3×10^5 cells per well in a 24 well plate for IGF-1 secretion assays, and 5×10^5 per well in a 24 well plate for engulfment assays. Floating cells were washed the next day and remaining peritoneal macrophages were used 2 days after isolation. Alveolar macrophages were isolated by flushing the lungs with 1 mL of cold PBS instilled intratracheally (five flushes). Collected cells were centrifuged, resuspended in F12K media containing 10% FBS and 1% PSQ, and seeded at 1×10^5 cells per well in a 48-well plate. All floating cells were washed away the next day and remaining cells were used in assays 2 days after isolation.

[5] = system: BEAS-2B cells; experiment: Uptake of alveolar macrophage derived microvesicles by BEAS-2B cells; assay type: cell-based, human; settings: IGF-1 100 ng/mL
Experimental: MH-S, mouse alveolar macrophages, or primary mouse alveolar macrophages were seeded. After adherence, the media was replaced with 0.22 μm filtered media to remove any contaminating microvesicles. After an overnight incubation, the supernatant was harvested and spun at 5000×g to remove cell debris and apoptotic bodies. The pellet was discarded and the resulting supernatant was filtered through 0.8 μm filter and spun again at 17,000×g. The pelleted microvesicles were then washed with HBSS and then spun again at 17,000×g. For engulfment assays, microvesicles were stained with TAMRA for 20 minutes and then added to BEAS-2B cells for 90 minutes. For flow cytometry, purified particles were stained with CD11c, Siglec F, and Annexin V (BD Biosciences, Cat. No. 550475) and processed on Imagestream™ imaging flow cytometer (Amnis). Microvesicle size distribution was characterized using qNano (IZON Science) with a NP400 membrane and at least 500 particles were counted. Microvesicles were prepared for cryo-electron microscopy using standard methods and imaged on an FEI TF20.

In the case of insulin-like growth factor I [IGF-1], the “apoptotic cell uptake by BEAS-2B cells” value [1] is reported as “engulfment dampening effect of IGF-1 was also seen”, the “uptake of PtdSer containing liposomes by LR73 cells” value [2] is reported as “enhanced the uptake of PtdSer containing liposomes” and the “corpse uptake by J774 cells” value [3] is reported as “did not affect corpse uptake”. For the same substance, the “liposome uptake by peritoneal macrophages” value [4] was “comparable liposome uptake as control treated cells” and the “uptake of microvesicles by BEAS-2B airway epithelial cells” value [5] was “enhanced by IGF-1”.
